Literature values as cited in patent EP1336411A1, “Compositions and methods for improving enzyme replacement therapy of lysosomal storage diseases” (Academisch Medisch Centrum bij de Universiteit van Amsterdam, priority 2002, dated 2003).

Molecular target: alpha-Galactosidase A (Homo sapiens, UniProt P06280)
Details: read-out: apparent Km; artificial substrate 4-methylumbelliferyl-alpha-D-galactopyranoside; pH 4.6 (maximal activity)

Chain of alpha-Galactosidase A (P06280 32-429): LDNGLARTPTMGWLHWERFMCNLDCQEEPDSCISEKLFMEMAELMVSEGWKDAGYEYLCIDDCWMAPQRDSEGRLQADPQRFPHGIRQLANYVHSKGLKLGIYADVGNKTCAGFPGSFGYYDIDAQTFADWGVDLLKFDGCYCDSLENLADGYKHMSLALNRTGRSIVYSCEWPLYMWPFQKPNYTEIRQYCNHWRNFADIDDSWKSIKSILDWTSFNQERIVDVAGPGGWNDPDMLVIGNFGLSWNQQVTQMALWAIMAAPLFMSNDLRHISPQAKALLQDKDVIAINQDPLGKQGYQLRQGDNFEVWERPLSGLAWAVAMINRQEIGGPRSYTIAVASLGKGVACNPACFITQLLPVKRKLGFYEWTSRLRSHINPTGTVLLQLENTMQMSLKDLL

Question: For `Cc1cc(=O)oc2cc(O[C@H]3O[C@H](CO)[C@H](O)[C@H](O)[C@H]3O)ccc12` [4-methylumbelliferyl-alpha-D-galactopyranoside], which Km is on record?
Answer: 2000 µM
